Measured values: patent US7238689B2, “Isoxazoline derivative and herbicide comprising the same as active ingredient” (Ihara Chemical Industry Co., Ltd., priority 2001, dated 2007)

What was measured:
[1] = tested on: Echinochloa crus-galli (L.) Beauv. var. crusgalli; assay: Herbicidal effect by upland field soil treatment; format: in vivo; design: scale not given here; conditions: active ingredient 1000 g/ha, examined at 21st day from treatment
Excerpt: (§1) An upland field soil was filled in a plastic pot of 80 cm^2. Seeds of Echinochloa crus-galli (L.) Beauv. var. crusgalli and Setaria viridis (L.) Beauv. were sowed, followed by covering with the same soil. […] Then, breeding was made in a greenhouse, and the herbicidal effect of each wettable powder was examined at the 21st day from the treatment in accordance with the standard shown in Table 21.

[2] = tested on: Setaria viridis (L.) Beauv.; assay: Herbicidal effect by upland field soil treatment; format: in vivo; design: scale not given here; conditions: active ingredient 1000 g/ha, examined at 21st day from treatment
Excerpt: as §1

[3] = tested on: Setaria viridis (L.) Beauv.; assay: Herbicidal effect by upland foliage treatment; format: in vivo; design: scale not given here; conditions: active ingredient 1000 g/ha, examined at 14th day from treatment
Experimental: (§2) A sand was filled in a plastic pot of 80 cm^2. Seeds of Echinochloa crus-galli (L.) Beauv. var. crus-galli and Setaria viridis (L.) Beauv. were sowed. Breeding was made in a greenhouse for 2 weeks. Wettable powders produced in accordance with the Formulation 1 were diluted with water and sprayed on the whole foliage of plants from above the plants using a small sprayer in an amount of 1,000 liters per 1 hectare so that the amount of each active ingredient became 1,000 g per 1 hectare. Then, breeding was made in the greenhouse, and the herbicidal effect of each wettable powder was examined at the 14th day from the treatment in accordance with the standard shown in Table 21.

[4] = tested on: Echinochloa crus-galli (L.) Beauv. var. crus-galli; assay: Herbicidal effect by upland foliage treatment; format: in vivo; design: scale not given here; conditions: active ingredient 1000 g/ha, examined at 14th day from treatment
Experimental: as §2

[5] = tested on: Echinochloa oryzicola Vasing; assay: Herbicidal effect by paddy field soil treatment; format: in vivo; design: scale not given here; conditions: wettable powder, active ingredient 1000 g/ha, examined at the 21st day from the treatment
Procedure, shortened: (§3)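 Seeds sown in puddled paddy soil under 3 cm of water; the next day wettable powders diluted in water were dropped onto the water surface at 1,000 g active ingredient/ha. Plants grown in a greenhouse, with herbicidal effect scored on day 21 against a rating standard.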

[6] = tested on: Monochoria vaginalis (Murm. f.) Presl var. plantaginea (Roxb.) Solms-Laub.; assay: Herbicidal effect by paddy field soil treatment; format: in vivo; design: scale not given here; conditions: wettable powder, active ingredient 1000 g/ha, examined at the 21st day from the treatment
Procedure, shortened: as §3

Row | melting point [°C] | SMILES | herbicidal effect (index per standard of Table 21), Echinochloa curs-galli (L.) Beauv. Var. crus-galli [1] | herbicidal effect (index per standard of Table 21), Setaria viridis (L.) Beauv. [2] | herbicidal effect (index per standard of Table 21), Setaria viridis (L.) Beauv. [3] | herbicidal effect (index per standard of Table 21), Echinochloa curs-galli (L.) Beauv. Var. crus-galli [4] | Herbicidal effect index, Echinochloa oryzicola Vasing [5] | Herbicidal effect index, Monochoria vaginalis (Burm. F.) Presl var. plantaginea (Roxb.) Solms-Laub. [6]
1 | 89 to 90 | CC1(C)CC(SCc2c(C(F)(F)F)nn(-c3ccccc3)c2Cl)=NO1 [3-0001, 3-(5-chloro-1-phenyl-3-trifluoromethyl-1H-pyrazol-4-ylmethylthio)-5,5-dimethyl-2-isoxazoline] |  |  |  |  |  | 
2 | 150 to 151 | CN(C)c1c(CS(=O)(=O)C2=NOC(C)(C)C2)c(C(F)(F)F)nn1-c1ccccc1 [3-0005, 5,5-dimethyl-3-(5-dimethylamino-1-phenyl-3-trifluoromethyl-1H-pyrazol-4-ylmethylsulfonyl)-2-isoxazoline] |  |  |  |  |  | 
3 | 79 to 81 | CC1(C)CC(SCc2c(C(F)(F)F)nn(C(C)(C)C)c2Cl)=NO1 [3-0006, 3-(1-tert-butyl-5-chloro-3-trifluoromethyl-1H-pyrazol-4-ylmethylthio)-5,5-dimethyl-2-isoxazoline] | 4 | 4 |  |  |  | 
4 | 120 to 122 | CC1(C)CC(SCc2c(C(F)(F)F)n[nH]c2Cl)=NO1 [3-0007, 3-(5-chloro-3-trifluoromethyl-1H-pyrazol-4-ylmethylthio)-5,5-dimethyl-2-isoxazoline] |  |  |  |  |  | 
5 | 124 to 125 | CCOc1nn(C)c(C(F)(F)F)c1CS(=O)(=O)C1=NOC(C)(C)C1 [3-0012, 5,5-dimethyl-3-(3-ethoxy-1-methyl-5-trifluoromethyl-1H-pyrazol-4-ylmethylsulfonyl)-2-isoxazoline] | 5 | 5 |  |  |  | 
6 | 105 to 107 | CCn1nc(Cl)c(CS(=O)(=O)C2=NOC(C)(C)C2)c1Cl [3-0017, 3-(3,5-dichloro-1-ethyl-1H-pyrazol-4-ylmethylsulfonyl)-5,5-dimethyl-2-isoxazoline] | 5 | 5 |  |  |  | 
7 |  | COCn1nc(Cl)c(CS(=O)(=O)C2=NOC(C)(C)C2)c1C(F)(F)F [3-0119] | 5 | 5 | 4 | 5 | 5 | 5
8 |  | CCOCn1nc(C(F)(F)F)c(CS(=O)(=O)C2=NOC(C)(C)C2)c1Cl [3-0120] | 5 | 5 | 5 | 5 | 5 | 5
9 |  | CC(=O)CCn1nc(C(F)(F)F)c(CS(=O)(=O)C2=NOC(C)(C)C2)c1Cl [3-0144] | 5 | 5 | 5 | 5 | 5 | 5
10 |  | Cc1nsc(Cl)c1CS(=O)(=O)C1=NOC(C)(C)C1 [4-0002, [(5-chloro-3-methyl-isothiazol-4-yl)-methylsulfonyl]-5,5-dimethyl-2-isoxazoline] | 5 | 5 | 4 | 5 | 5 | 5
11 |  | Cc1noc(C)c1CS(=O)(=O)C1=NOC(C)(C)C1 [4-0005] | 5 | 5 | 4 | 5 | 5 | 5
12 |  | Cc1nn(C)c(CS(=O)(=O)C2=NOC(C)(C)C2)c1Cl [5-0001] | 5 | 5 | 4 | 5 | 5 | 5
13 |  | CCc1nn(C)c(CS(=O)(=O)C2=NOC(C)(C)C2)c1Cl [5-0002] | 5 | 5 | 5 | 5 | 5 | 5
14 |  | Cn1ncc(C(F)(F)F)c1CS(=O)(=O)C1=NOC(C)(C)C1 [5-0003] | 5 | 5 | 4 | 5 | 5 | 5
15 |  | CC1(C)CC(S(=O)(=O)Cc2c(C(F)(F)F)cnn2-c2ccccc2)=NO1 [5-0007] | 5 | 5 | 5 | 5 | 5 | 5
16 |  | Cc1cc(CS(=O)(=O)C2=NOC(C)(C)C2)no1 [6-0004] | 5 | 5 | 4 | 5 | 5 | 5
17 | 77 to 80 | CC1(C)CC(S(=O)(=O)Cc2cnccc2C(F)(F)F)=NO1 [7-0001, 5,5-dimethyl-3-(4-trifluoromethyl-pyridin-3-ylmethylsulfonyl)-2-isoxazoline] |  |  |  |  |  | 
18 |  | Cc1cc[n+]([O-])c(Cl)c1CS(=O)(=O)C1=NOC(C)(C)C1 [7-0008] | 5 | 5 | 5 | 5 | 5 | 5
19 |  | COc1c(CS(=O)(=O)C2=NOC(C)(C)C2)c(C)cc[n+]1[O-] [7-0009] | 5 | 5 | 4 | 4 | 5 | 5
20 |  | CC1(C)CC(S(=O)(=O)Cc2ccccn2)=NO1 [9-0001] | 5 | 5 | 4 | 4 | 5 | 5
21 |  | CC1(C)CC(S(=O)(=O)Cc2ncon2)=NO1 [9-0005] | 5 | 4 | 4 | 4 | 5 | 5
22 |  | CC1(C)CC(S(=O)(=O)Cc2csc(Cl)n2)=NO1 [9-0008] | 5 | 5 | 4 | 4 | 5 | 5
